Results reported in patent US7273863B1, “Benzophenones as inhibitors of reverse transcriptase” (SmithKline Beecham Corporation, priority 1999, dated 2007).

Legend:
Test in all cases: HeLa cell assay (HIV-LTR β-galactosidase reporter)
[1] = test system: isogenic HIV-1 RT mutant virus G190A; type: cell-based; conditions: Human immunodeficiency virus 1, HeLa, read-out: IC50 (nM) Range
Method: (§1) The HeLa cell assay was performed according to a modification of Kimpton J. and Emerman M., Detection of replication-competent and pseudotyped human immunodeficiency virus with a sensitive cell line on the basis of activation of an integrated β-galactosidase gene, J. Virol. 66:2232-2239 (1992), in which HIV-1 infection is detected by the activation of an HIV-LTR driven β-galactosidase reporter that is integrated into the genome of a CD4^+ HeLa cell line. Quantitation of β-galactosidase is achieved by measuring the activation of a chemiluminescent substrate (Tropix). The concentration of each compound required to inhibit 50% (IC50) of the HIV-1 induced β-galactosidase signal, relative to untreated controls, was determined for each isogenic, recombinant virus.
(§2) HeLa-CD4-LTR-β-gal cells were obtained from the NIH AIDS Research and Reference Reagent Program. Cells were propagated in DMEM containing 10% fetal bovine serum, 0.2 mg/ml geneticin and 0.1 mg/ml hygromycin B. Cells were routinely split by trypsinization when confluency reached 80% (approximately every 2 to 3 days).
(§3) DNA encoding the HIV-1 reverse transcriptase was subcloned from a M13 phage into a general shuttle vector, pBCSK+, as a ˜1.65 kbp EcoRI/HindIII ended DNA fragment. The HIV DNA insert of the resulting plasmid, pRT2, was completely sequenced on both strands prior to use in site directed mutagenesis experiments. Specific amino acid replacements were made using Stratagene Quick Change reagents and mutagenic oligonucleotides from Oligos. Following mutagenesis, the entire mutant RT coding sequence was verified by sequencing both DNA strands.
(§4) Mutant HIV-1 strains were isolated by a modified Recombinant Virus Assay (Kellam P. and Larder B., Recombinant virus assay: a rapid, phenotypic assay for assessment of drug susceptibility of human immunodeficiency virus type 1 isolates, Antimicrobial Agents and Chemotherapy, 38:23-30, 1994). 1×10^7 Jurkat T-cells (maintained in RPMI containing 10% fetal bovine serum, split 1:5 every 5 to 6 days) were co-transfected with EcoRI/HindIII digested mutant RT plasmid and Bst EII-digested HIV-1HXB2ΔRT DNA in the presence of DMRIE-C transfection reagent (Gibco) according to supplier's recommended protocol. Each mutant RT coding sequence was crossed into the RT-deleted HIV-1 viral DNA backbone by in vivo homologous recombination. Transfected cell cultures were expanded and monitored until syncitia formation and CPE were extensive. Virus was harvested by clear spin of the culture supernatants and frozen at −80 C as primary stock. Recombinant progeny virus was sequenced in the RT region to confirm the mutant genotype. Virus stocks were further expanded by infection of Jurkat cells, harvested and stored as frozen aliquots. Stocks were titered in HeLa MAGI cells for assay.
(§5) The HIV-1HXB2 mutants were titered in the HeLa MAGI assay system to determine the relative light units (RLU) per ml, a measure of infectivity relevant for this assay system. Virus stocks were diluted in a 2-fold series into DMEM containing 10% fetal bovine serum plus 20 ug/ml DEAE-dextran and assayed as described in the Experimental Protocol section, below.
(§6) 96-well microtiter plate(s) (Costar #3598) were seeded with 3×10^3 HeLa-CD4-LTR-β-gal in 100 μl DMEM containing 10% fetal bovine serum. Plates were placed in a 37° C., 5% CO2 humidified incubator overnight. The following day, mutant virus stocks were thawed in a room temperature water bath and diluted into DMEM containing 10% fetal bovine serum and 20 μg/ml DEAE-dextran to achieve an input of 1500 to 2000 RLU/ml. All media was removed with an 8 channel manifold aspirator and 35 μl (50 to 70 total RLUs) of diluted virus was added to each well for virus adsorption. Plates were placed in a 37° C., 5% CO2 humidified incubator for 1.5 to 2 hours.
(§7) Compound titration plates were prepared at 1.35× final concentration during the virus adsorption period. […]

[2] = test system: isogenic HIV-1 RT mutant virus K103N; type: cell-based; conditions: Human immunodeficiency virus 1, HeLa, read-out: IC50 (nM) Range
Method: as §1, §2, §3, §4, §5, §6, §7

[3] = test system: isogenic HIV-1 RT mutant virus P236L; type: cell-based; conditions: Human immunodeficiency virus 1, HeLa, read-out: IC50 (nM) Range
Method: as §1, §2, §3, §4, §5, §6, §7

[4] = test system: isogenic HIV-1 RT mutant virus K103N/Y181C; type: cell-based; conditions: Human immunodeficiency virus 1, HeLa, read-out: IC50 (nM) Range
Method: as §1, §2, §3, §4, §5, §6, §7

[5] = test system: isogenic HIV-1 RT mutant virus K103N/V108I; type: cell-based; conditions: Human immunodeficiency virus 1, HeLa, read-out: IC50 (nM) Range
Method: as §1, §2, §3, §4, §5, §6, §7

[6] = test system: isogenic HIV-1 RT mutant virus K103N/P225H; type: cell-based; conditions: Human immunodeficiency virus 1, HeLa, read-out: IC50 (nM) Range
Method: as §1, §2, §3, §4, §5, §6, §7

[7] = test system: isogenic HIV-1 RT mutant virus V106I; type: cell-based; conditions: Human immunodeficiency virus 1, HeLa, read-out: IC50 (nM) Range
Method: as §1, §2, §3, §4, §5, §6, §7

[8] = test system: isogenic HIV-1 RT mutant virus L100I; type: cell-based; conditions: Human immunodeficiency virus 1, HeLa, read-out: IC50 (nM) Range
Method: as §1, §2, §3, §4, §5, §6, §7

[9] = test system: isogenic HIV-1 RT mutant virus V106A/Y181C; type: cell-based; conditions: Human immunodeficiency virus 1, HeLa, read-out: IC50 (nM) Range
Method: as §1, §2, §3, §4, §5, §6, §7

[10] = test system: isogenic HIV-1 RT mutant virus V108I; type: cell-based; conditions: Human immunodeficiency virus 1, HeLa, read-out: IC50 (nM) Range
Method: as §1, §2, §3, §4, §5, §6, §7

[11] = test system: isogenic HIV-1 RT mutant virus V106I/Y181C; type: cell-based; conditions: Human immunodeficiency virus 1, HeLa, read-out: IC50 (nM) Range
Method: as §1, §2, §3, §4, §5, §6, §7

[12] = test system: isogenic HIV-1 RT mutant virus V108I/Y181C; type: cell-based; conditions: Human immunodeficiency virus 1, HeLa, read-out: IC50 (nM) Range
Method: as §1, §2, §3, §4, §5, §6, §7

[13] = test system: isogenic HIV-1 RT mutant virus K103N/G190A; type: cell-based; conditions: Human immunodeficiency virus 1, HeLa, read-out: IC50 (nM) Range
Method: as §1, §2, §3, §4, §5, §6, §7

[14] = test system: isogenic HIV-1 RT mutant virus P225H; type: cell-based; conditions: Human immunodeficiency virus 1, HeLa, read-out: IC50 (nM) Range
Method: as §1, §2, §3, §4, §5, §6, §7

[15] = test system: isogenic HIV-1 RT mutant virus Y181C; type: cell-based; conditions: Human immunodeficiency virus 1, HeLa, read-out: IC50 (nM) Range
Method: as §1, §2, §3, §4, §5, §6, §7

[16] = test system: WTRVA; type: cell-based, HIV-1; conditions: Human immunodeficiency virus 1, Virus Type WTRVA, read-out: IC50 (nM) Range
Method: as §1, §2, §3, §4, §5, §6, §7

For `Cc1cc(S(N)(=O)=O)ccc1NC(=O)COc1ccc(Cl)cc1C(=O)c1cc(F)cc(F)c1` [Compound 62], the IC50 [1] was < 10 nM, the IC50 [2] was < 10 nM and the IC50 [3] was 11 to 100 nM. For the same compound, the IC50 [4] was 11 to 100 nM, the IC50 [5] was < 10 nM and the IC50 [6] was < 10 nM. The IC50 [7] was < 10 nM, the IC50 [8] was < 10 nM and the IC50 [9] was 11 to 100 nM. For the same compound, the IC50 [10] was < 10 nM, the IC50 [11] was 11 to 100 nM and the IC50 [12] was < 10 nM. For the same compound, the IC50 [13] was 11 to 100 nM, the IC50 [14] was < 10 nM and the IC50 [15] was < 10 nM. For the same compound, the IC50 [16] was < 10 nM.

`Cc1cc(S(N)(=O)=O)ccc1NC(=O)COc1ccc(Cl)cc1C(=O)c1cc(F)cc(C(F)(F)F)c1` [Compound 78] was tested, and the IC50 [1] was < 10 nM, the IC50 [2] was < 10 nM and the IC50 [3] was < 10 nM. The IC50 [4] was < 10 nM, the IC50 [5] was < 10 nM and the IC50 [6] was < 10 nM. For the same compound, the IC50 [8] was < 10 nM, the IC50 [9] was 11 to 100 nM and the IC50 [10] was < 10 nM. For the same compound, the IC50 [12] was 11 to 100 nM, the IC50 [13] was 11 to 100 nM and the IC50 [14] was < 10 nM. For the same compound, the IC50 [15] was < 10 nM and the IC50 [16] was < 10 nM.

In the case of `Cc1cc2nc[nH]c2cc1NC(=O)COc1ccc(Cl)cc1C(=O)c1cc(F)cc(C(F)(F)F)c1` [Compound 239], the IC50 [1] is reported as < 10 nM, the IC50 [2] is reported as < 10 nM and the IC50 [3] is reported as < 10 nM. The IC50 [4] was 11 to 100 nM, the IC50 [5] was < 10 nM and the IC50 [6] was < 10 nM. For the same compound, the IC50 [7] was < 10 nM, the IC50 [8] was < 10 nM and the IC50 [9] was 101 to 1000 nM. The IC50 [10] was < 10 nM, the IC50 [11] was < 10 nM and the IC50 [12] was < 10 nM. The IC50 [13] was 11 to 100 nM, the IC50 [14] was < 10 nM and the IC50 [15] was < 10 nM. The IC50 [16] was < 10 nM.

For `Cc1cc(OCCCS(N)(=O)=O)ccc1NC(=O)COc1ccc(Cl)cc1C(=O)c1cc(F)cc(C(F)(F)F)c1` [Compound 257], the IC50 [1] was < 10 nM, the IC50 [2] was < 10 nM and the IC50 [3] was < 10 nM. The IC50 [4] was < 10 nM, the IC50 [5] was < 10 nM and the IC50 [6] was < 10 nM. The IC50 [7] was < 10 nM, the IC50 [8] was < 10 nM and the IC50 [9] was 11 to 100 nM. The IC50 [10] was < 10 nM, the IC50 [11] was 11 to 100 nM and the IC50 [12] was < 10 nM. The IC50 [13] was 11 to 100 nM, the IC50 [14] was < 10 nM and the IC50 [15] was < 10 nM. For the same compound, the IC50 [16] was < 10 nM.

With `Cc1cc(S(N)(=O)=O)ccc1NC(=O)COc1ccc(Cl)cc1C(=O)c1cccc(C#N)c1` [Compound 448] the IC50 [1] was < 10 nM, the IC50 [2] was < 10 nM and the IC50 [3] was 11 to 100 nM. The IC50 [4] was 11 to 100 nM, the IC50 [5] was < 10 nM and the IC50 [6] was < 10 nM. The IC50 [7] was < 10 nM, the IC50 [8] was < 10 nM and the IC50 [9] was 11 to 100 nM. The IC50 [10] was < 10 nM, the IC50 [11] was 11 to 100 nM and the IC50 [12] was < 10 nM. For the same compound, the IC50 [13] was 11 to 100 nM, the IC50 [14] was < 10 nM and the IC50 [15] was < 10 nM.

In the case of `Cc1cc2cn[nH]c2cc1NC(=O)COc1ccc(Cl)cc1C(=O)c1cccc(C#N)c1` [Compound 453], the IC50 [1] is reported as < 10 nM, the IC50 [2] is reported as < 10 nM and the IC50 [3] is reported as 11 to 100 nM. The IC50 [4] was < 10 nM, the IC50 [5] was < 10 nM and the IC50 [6] was < 10 nM. For the same compound, the IC50 [7] was < 10 nM, the IC50 [8] was < 10 nM and the IC50 [9] was 11 to 100 nM. For the same compound, the IC50 [10] was 101 to 1000 nM, the IC50 [11] was 11 to 100 nM and the IC50 [12] was < 10 nM. For the same compound, the IC50 [13] was 11 to 100 nM, the IC50 [14] was < 10 nM and the IC50 [15] was < 10 nM. The IC50 [16] was < 10 nM.
